# Measured values taken from patent publication US20260250318A1, “COMPOSITIONS AND METHODS FOR CROSSING THE BLOOD BRAIN BARRIER” (VOYAGER THERAPEUTICS, INC., priority 2022, published 2026).
# Test system: brain
# Experiment: NGS fold enrichment of synthetic library (passage 3) in BALB/c mice, first cross-species screen
# Type: in vivo
# Settings: synthetic library passage 3, intravenous, RNA NGS, brain of BALB/c mice, relative to wild-type AAV9
# Outline: (§1)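 Passage-3 synthetic capsid library given intravenously […] to NHPs (2-4 years) and BALB/c or C57Bl/6 mice (n=3, 6-8 weeks). After e.g. 28 days, tissue RNA was RT-PCR amplified and NGS-sequenced; values are fold enrichment of each variant relative to wild-type AAV9.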
row,Sequence,Fold enrichment over AAV9 in the brain of Mice (BALB/c) [fold]
1,GSGQNQQTALGVKC,1.014
2,GSYGMAASGQNQQT,0.829
3,GRTDSHTSGQNQQT,0.704
4,GSGQIRHSDQNQQT,0.320
5,GSGQNQQTMDHNRT,0.440
6,GRGVQQKLQQNQQT,0.823
7,GSGQNQHSLGNYQT,0.606
8,GSGQNAGSFPNQQT,0.286
9,GSGSPHVRMQNQQT,10.076
10,GSTVQDTRGQNQQT,0.473
11,GSSGRDMGGQNQQT,0.595
12,GSGQTSGLKQNQQT,0.334
13,GRGGSMAETQNQQT,0.669
14,GSGQNQHSVQVRQT,0.916
15,GSGQMKDLHRNQQT,0.506
16,GSGQNQQSTGTSRT,0.935
17,GHLTMHNSGQNHQT,0.586
18,GSGHAKAVGQNQQT,0.824
19,GSGLLHGKLQNQQT,0.917
20,GSGYNQPHLQNQQT,0.395
21,GSGQYASSIPNQQT,0.489
22,GSGMSPSTLQNQQT,0.153
23,GSGYKAARPQNQQT,0.337
24,GSGYLRESPQNQQT,0.677
25,GNIAGSVSGQNQQT,0.257
26,GSGQNQHLSSFVQT,0.364
27,GSGQNQQTVPTRQT,0.138
28,GSGQVGRLLQNQQT,0.748

# Same assay, conditions: synthetic library passage 3, intravenous, RNA from brain of BALB/c mice, NGS, relative to wild-type AAV9
row,Sequence,Fold enrichment over AAV9 in the brain of Mice (BALB/c) [fold]
1,GSGQNVSMQVNQQT,0.251
2,GSGQLGLSVTNQQT,0.376
3,GSGQALLSTGNQQT,0.370
4,GSGSQHSKAQNQQT,0.916

# Test system: brain, spinal cord, and DRG of the NHPs
# Experiment: NGS fold enrichment of synthetic library (passage 3) in NHPs, first cross-species screen
# Type: in vivo, cynomolgus macaques (Macaca fascicularis)
# Settings: synthetic library passage 3, intravenous, RNA NGS, brain of NHPs, relative to wild-type AAV9
# Outline: as §1
row,Sequence,Fold enrichment over AAV9 in the brain of NHPs [fold]
1,GSGQNQQTALGVKC,1.835
2,GSYGMAASGQNQQT,3.817
3,GRTDSHTSGQNQQT,2.913
4,GSGQIRHSDQNQQT,2.600
5,GSGQNQQTMDHNRT,2.130
6,GRGVQQKLQQNQQT,1.817
7,GSGQNQHSLGNYQT,2.143
8,GSGQNAGSFPNQQT,1.928
9,GSGSPHVRMQNQQT,11.574
10,GSTVQDTRGQNQQT,2.270
11,GSSGRDMGGQNQQT,1.778
12,GSGQTSGLKQNQQT,1.968
13,GRGGSMAETQNQQT,1.024
14,GSGQNQHSVQVRQT,1.116
15,GSGQMKDLHRNQQT,1.014
16,GSGQNQQSTGTSRT,1.103
17,GHLTMHNSGQNHQT,1.938
18,GSGHAKAVGQNQQT,1.081
19,GSGLLHGKLQNQQT,2.032
20,GSGYNQPHLQNQQT,1.435
21,GSGQYASSIPNQQT,2.346
22,GSGMSPSTLQNQQT,2.216
23,GSGYKAARPQNQQT,1.803
24,GSGYLRESPQNQQT,2.311
25,GNIAGSVSGQNQQT,2.849
26,GSGQNQHLSSFVQT,1.013
27,GSGQNQQTVPTRQT,1.040
28,GSGQVGRLLQNQQT,1.899

# Same assay, conditions: synthetic library passage 3, intravenous, RNA NGS, spinal cord of NHPs, relative to wild-type AAV9
row,Sequence,Fold enrichment over AAV9 in the spinal cord of NHPs [fold]
1,GSGQNQQTALGVKC,1.343
2,GSYGMAASGQNQQT,10.052
3,GRTDSHTSGQNQQT,1.510
4,GSGQIRHSDQNQQT,12.884
5,GSGQNQQTMDHNRT,4.944
6,GRGVQQKLQQNQQT,0.000
7,GSGQNQHSLGNYQT,1.896
8,GSGQNAGSFPNQQT,12.575
9,GSGSPHVRMQNQQT,6.764
10,GSTVQDTRGQNQQT,4.979
11,GSSGRDMGGQNQQT,2.177
12,GSGQTSGLKQNQQT,3.927
13,GRGGSMAETQNQQT,2.853
14,GSGQNQHSVQVRQT,1.909
15,GSGQMKDLHRNQQT,1.068
16,GSGQNQQSTGTSRT,4.054
17,GHLTMHNSGQNHQT,1.798
18,GSGHAKAVGQNQQT,4.357
19,GSGLLHGKLQNQQT,2.521
20,GSGYNQPHLQNQQT,4.512
21,GSGQYASSIPNQQT,3.321
22,GSGMSPSTLQNQQT,3.053
23,GSGYKAARPQNQQT,0.000
24,GSGYLRESPQNQQT,0.878
25,GNIAGSVSGQNQQT,1.187
26,GSGQNQHLSSFVQT,0.110
27,GSGQNQQTVPTRQT,1.207
28,GSGQVGRLLQNQQT,1.762

# Same assay, conditions: synthetic library passage 3, intravenous, RNA from brain of NHPs, NGS, relative to wild-type AAV9
row,Sequence,Fold enrichment over AAV9 in the brain of NHPs [fold]
1,GSGQNVSMQVNQQT,1.341
2,GSGQLGLSVTNQQT,1.364
3,GSGQALLSTGNQQT,1.377
4,GSGSQHSKAQNQQT,1.168

# Same assay, conditions: synthetic library passage 3, intravenous, RNA from spinal cord of NHPs, NGS, relative to wild-type AAV9
row,Sequence,Fold enrichment over AAV9 in the spinal cord of NHPs [fold]
1,GSGQNVSMQVNQQT,0.000
2,GSGQLGLSVTNQQT,6.906
3,GSGQALLSTGNQQT,0.847
4,GSGSQHSKAQNQQT,0.312

# Test system: brain
# Experiment: NGS fold enrichment of synthetic library (passage 3) in C57Bl/6 mice, first cross-species screen
# Type: in vivo
# Settings: synthetic library passage 3, intravenous, RNA NGS, brain of C57Bl/6 mice, relative to wild-type AAV9
# Outline: as §1
row,Sequence,Fold enrichment over AAV9 in the brain of Mice (C57Bl/6) [fold]
1,GSGQNQQTALGVKC,1.378
2,GSYGMAASGQNQQT,1.274
3,GRTDSHTSGQNQQT,1.299
4,GSGQIRHSDQNQQT,1.170
5,GSGQNQQTMDHNRT,0.642
6,GRGVQQKLQQNQQT,1.974
7,GSGQNQHSLGNYQT,1.077
8,GSGQNAGSFPNQQT,1.091
9,GSGSPHVRMQNQQT,9.121
10,GSTVQDTRGQNQQT,0.576
11,GSSGRDMGGQNQQT,1.052
12,GSGQTSGLKQNQQT,0.394
13,GRGGSMAETQNQQT,0.799
14,GSGQNQHSVQVRQT,0.782
15,GSGQMKDLHRNQQT,0.587
16,GSGQNQQSTGTSRT,1.209
17,GHLTMHNSGQNHQT,1.030
18,GSGHAKAVGQNQQT,0.703
19,GSGLLHGKLQNQQT,1.068
20,GSGYNQPHLQNQQT,0.711
21,GSGQYASSIPNQQT,1.022
22,GSGMSPSTLQNQQT,0.318
23,GSGYKAARPQNQQT,1.418
24,GSGYLRESPQNQQT,0.331
25,GNIAGSVSGQNQQT,0.446
26,GSGQNQHLSSFVQT,1.090
27,GSGQNQQTVPTRQT,0.629
28,GSGQVGRLLQNQQT,0.773

# Same assay, conditions: synthetic library passage 3, intravenous, RNA from brain of C57Bl/6 mice, NGS, relative to wild-type AAV9
row,Sequence,Fold enrichment over AAV9 in the brain of Mice (C57Bl/6) [fold]
1,GSGQNVSMQVNQQT,0.357
2,GSGQLGLSVTNQQT,1.395
3,GSGQALLSTGNQQT,0.536
4,GSGSQHSKAQNQQT,0.638
